According to paper PMC7212467, “Lipid-Mediated Insertion of Toll-Like Receptor (TLR) Ligands for Facile Immune Cell Engineering” (Frontiers in Immunology, 2020):

Key:
purified mouse T cells = assay: ELISA quantification of depoted lipid conjugates per T cell; format: cell-based; details: for ng/mL (equivalent in solution): Table S1, estimated dose on depoted T cells; for # Ligands/T cell: Table S1, quantitation of cell surface TLR2 ligands by ELISA, depoted 10 μg/mL, 1 h; for fold increase in number of depoted molecules per T cell, 0.1 to 10 μg/mL depoting concentration: biotinylated ligand, cell lysate, streptavidin-HRP/TMB absorbance 450 nm, n = 3-4 independent samples
Procedure: (§1) Unless specified otherwise (in Figure 2), splenocytes, isolated B cells, or isolated T cells were incubated with CpG (5 μM), lipid-CpG (5 μM), Pam2CSK4 (10 μg/mL), or Pam3CSK4 (10 μg/mL) for 1 h in complete RPMI 1640 media supplemented with 10% fetal bovine serum. Splenocytes or T cells were then washed 3 times with PBS plus 1% bovine serum albumin to remove unbound ligand.
One million purified T cells were depoted with FAM-labeled lipid-CpG, biotinylated Pam2CSK4, or biotinylated Pam3CSK4 as described above, and then lysed with Glo lysis buffer (Promega) for 10 min at 25°C. Lysates were collected and plated onto Nunc MaxiSorp ELISA plates (Thermo). After 2 h of incubation at 25°C, FAM-labeled lipid-CpG was excited at 488 nm, and fluorescent emission at 520 nm was quantified by a microplate fluorescence reader. For Pam2CSK4 and Pam3CSK4 samples, horseradish peroxidase (HRP)-labeled streptavidin was added for 2 h incubation at 25°C, and then TMB substrate (Thermo) was added to observe changes in absorbance at 450 nm with a microplate spectrophotometer (BioTek).

[1] = test system: bystander B cells (TLR2+ APCs); assay: Bystander B-cell activation by TLR2 ligand-depoted T cells; format: cell-based, mouse; details: for CD69 upregulation on B cells (fold MFI) / MHC II upregulation on B cells (fold MFI): T cells depoted 10 μg/mL 1 h, co-culture with B cells 2 days, MFI normalized to unstimulated B cells, n = 5-6 independent experiments; for CD69 expression, depoted vs same dose of soluble ligand / MHC II expression, depoted vs same dose of soluble ligand: soluble dose 10 ng/mL Pam2CSK4, 2 ng/mL Pam3CSK4; for B-cell activation by dose-matched soluble ligand: 10 ng/mL Pam2CSK4, 2 ng/mL Pam3CSK4
Procedure: as §1
Naïve or primed T cells were rested in complete RPMI 1640 media and supplemented with 10% FBS after depoting with Pam2CSK4 or Pam3CSK4 as described above. At selected time-points (0, 1, 2, 5, or 8 days post-depoting), T cells were washed and fixed with 4% paraformaldehyde (Sigma) for 15 min at 25°C. After washing 5 times with PBS + 1% BSA, at 1,000 × g for 5 min, T cells were cultured in complete RPMI 1640 media and supplemented with 10% FBS. Bystander B cells were added in co-cultures at a 1:1 B cell:T cell ratio. Naïve T cells without fixation were immediately cultured with bystander B cells. After 2 days of incubation at 37°C and 5% CO2, B-cell activation was measured by fluorescent staining for MHCII (clone M5/114.15.2; FITC) and CD69 (clone H1.2F3; PerCP/Cy5.5).

polyclonal T cells = assay: Cytokine quantification in T-cell supernatants by ELISA; format: cell-based, mouse; details: supernatants day 2, ELISA, αCD3/CD28 bead-stimulated T cells, n = 5
Procedure: (§2) Naïve T cells were labeled with 5 μM of carboxyfluorescein succinimidyl ester (CFSE, ThermoFisher). Labeled cells were cultured in RPMI 1640 media and supplemented with 10% FBS as well as αCD3/CD28 coated Dynabeads^TM (Thermo) at a 1:5 bead to T cell ratio after depoting of lipid-CpG, Pam2CSK4, and/or Pam3CSK4 ligands. Non-depoted T cells were treated with soluble lipid-CpG (5 μM), Pam2CSK4 (10 μg/mL), and/or Pam3CSK4 (10 μg/mL). Cell proliferation was measured by CFSE dilution after 3 days, and cell activation was measured by fluorescent staining for CD25 (clone PC61; PE). Cell proliferation index and division index were calculated using FlowJo LLC software. Proliferation index is defined as the total number of cell divisions divided by the number of divided cells, whereas division index is the total number of cell divisions divided by the number of total original cells ([24]). Paracrine-enhanced proliferation of bystander T cells was measured as described above, with αCD3/CD28 beads added at a 2:5 bead to T-cell ratio.
T-cell activation was analyzed by collecting supernatants on day 2 post-activation for IL-2, IL-4, and IFNγ quantification by ELISA per manufacturer's instructions (BioLegend).

[2] = stated as much higher than the input concentration; cited from earlier work
Description: Thus, multiple lipid tails are a key design parameter for membrane delivery, and may be a simple way to enhance delivery of cargo to plasma membranes. One explanation of lipid-mediated insertion of TLR2 lipid-ligands, i.e., Pam2CSK4 and Pam3CSK4, into plasma membr ...

CD4+ and CD8+ T cells = assay: T-cell activation assay (CFSE proliferation, αCD3/CD28 beads); format: cell-based, mouse; details: αCD3/CD28 beads 3 days, CFSE dilution
Procedure: as §2

[3] = test system: depoted and bystander CD4+ and CD8+ T cells; assay: Paracrine-enhanced proliferation: depoted T cells co-cultured with bystander T cells; format: cell-based, mouse; details: αCD3/CD28 beads 3 days, n = 5
Procedure: as §2

[4] = co-culture with depoted T cells
[5] = co-culture with non-depoted T cells

| Substance | ng/mL (equivalent in solution) (purified mouse T cells) | # Ligands/T cell (purified mouse T cells) | fold increase in number of depoted molecules per T cell, 0.1 to 10 μg/mL depoting concentration (purified mouse T cells) | CD69 upregulation on B cells (fold MFI) [1] | MHC II upregulation on B cells (fold MFI) [1] | CD69 expression, depoted vs same dose of soluble ligand ([1]; 2 days co-culture) | MHC II expression, depoted vs same dose of soluble ligand ([1]; 2 days co-culture) | B-cell activation by dose-matched soluble ligand [1] | increase in IL-2 levels, depoted vs soluble ligand (polyclonal T cells) | critical micelle concentration [2] | CD8+ T-cell proliferation index, effect of depoting (CD4+ and CD8+ T cells; Figure S5) | CD4+ T-cell division index, depoted vs soluble ligand (CD4+ and CD8+ T cells; n = 3) | CD8+ T-cell division index, depoted vs soluble ligand (CD4+ and CD8+ T cells; n = 3) | bystander CD4+ T-cell division index vs soluble ligand [3, 4] | bystander CD8+ T-cell division index vs soluble ligand [3, 4] | CD4+ T-cell division index of depoted cells vs soluble ligand [3, 5] | CD8+ T-cell division index of depoted cells vs soluble ligand [3, 5] | MHC II expression, depoted vs 10 μg/mL of soluble ligand ([1]; 2 days co-culture) |
| --- | --- | --- | --- | --- | --- | --- | --- | --- | --- | --- | --- | --- | --- | --- | --- | --- | --- | --- |
| Pam2CSK4 | 9.6 ng/mL | 1.3E+07 | 130 fold | 3.8 fold | 19 fold | 2.2 fold | 5.3 fold | none of the dose-matched soluble Pam2CSK4 and Pam3CSK4 activated B cells | 2.7 fold | > 10 µg/mL | – | – | – | – | – | – | – | – |
| Pam3CSK4 | 1.8 ng/mL | 2.0E+06 | 2.2 fold | 4.4 fold | 21 fold | 2.8 fold | 6.1 fold | none of the dose-matched soluble Pam2CSK4 and Pam3CSK4 activated B cells | 3.4 fold | > 10 µg/mL | did enhance | 1.9 fold | 2.9 fold | 1.3 fold | 1.3 fold | 1.6 fold | 1.6 fold | 1.5 fold |
